As a reminder, the half-life is the time needed for the level to fall by half in the phase considered. As usually defined, the IC50 is the concentration at which inhibition is half-maximal. Usually AUC(0-t) stands for the area under the concentration-time curve up to a stated or last time point. One may read the Cmax as the highest concentration seen after dosing.

Bounds are passed on as bounds.

Data set [1] in a line: Half life in human liver microsomes. The format is ADME, Microsome. A general note: Liver microsomes are a subcellular fraction often used to study metabolism.
Data set [2] concerns the target T1, Indoleamine 2,3-dioxygenase 1 (Homo sapiens, UniProt P14902). In words: Inhibition of human N-terminal GST-tagged IDO1 expressed in Escherichia coli Rosetta(DE3) pLysS using L-tryptophan as substrate measured after 1 hr by fluorescence assay.
A short description of data set [3]: Half life in mouse liver microsomes. Type of data set: ADME, Microsome.
Data set [4] addresses T2, UGT1A9 (Homo sapiens, UniProt O60656).
T2 sequence (O60656 whole entry): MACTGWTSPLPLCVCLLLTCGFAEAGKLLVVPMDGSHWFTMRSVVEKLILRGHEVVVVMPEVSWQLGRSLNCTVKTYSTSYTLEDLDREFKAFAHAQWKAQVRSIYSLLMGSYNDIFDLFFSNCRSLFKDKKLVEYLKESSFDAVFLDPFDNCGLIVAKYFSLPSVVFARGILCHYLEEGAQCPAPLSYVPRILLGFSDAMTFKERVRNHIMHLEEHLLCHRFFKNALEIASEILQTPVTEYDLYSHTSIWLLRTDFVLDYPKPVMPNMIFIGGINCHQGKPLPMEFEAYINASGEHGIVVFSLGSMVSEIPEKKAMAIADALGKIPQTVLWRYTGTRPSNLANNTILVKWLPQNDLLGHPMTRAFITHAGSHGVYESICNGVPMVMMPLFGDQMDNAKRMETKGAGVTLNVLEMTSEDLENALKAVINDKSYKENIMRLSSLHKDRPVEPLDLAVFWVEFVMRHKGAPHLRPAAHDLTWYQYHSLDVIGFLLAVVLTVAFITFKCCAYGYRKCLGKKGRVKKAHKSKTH
In words: Stability assessed as recombinant UGT1A9 (unknown origin) mediated compound glucuronidation by measuring half-life at 1 uM incubated in water bath by shaking at 37 degree C measured upto 60 mins in presence of UDPGA by LC-MS/MS analysis. The format is ADME.

Data set [5] concerns the target T1, Indoleamine 2,3-dioxygenase 1. In words: Inhibition of IDO1 in interferon-gamma-induced human SKOV3 cells assessed as N-formylkynurenine formation using L-tryptophan as substrate measured after 24 hrs by fluorescence assay.
Data set [6] is described as follows: AUC(0 to 12 hrs) at steady state in human assessed as ratio of glucuronide to compound at 50 mg, bid measured after 10 days. Type of data set: ADME. As to conditions: in vivo.
For data set [7], the target named is Cytochrome P450 2C19 (Homo sapiens, UniProt P33261). In words: Inhibition of CYP2C19 (unknown origin). The format is ADME.
Chain of Cytochrome P450 2C19 (P33261 whole entry): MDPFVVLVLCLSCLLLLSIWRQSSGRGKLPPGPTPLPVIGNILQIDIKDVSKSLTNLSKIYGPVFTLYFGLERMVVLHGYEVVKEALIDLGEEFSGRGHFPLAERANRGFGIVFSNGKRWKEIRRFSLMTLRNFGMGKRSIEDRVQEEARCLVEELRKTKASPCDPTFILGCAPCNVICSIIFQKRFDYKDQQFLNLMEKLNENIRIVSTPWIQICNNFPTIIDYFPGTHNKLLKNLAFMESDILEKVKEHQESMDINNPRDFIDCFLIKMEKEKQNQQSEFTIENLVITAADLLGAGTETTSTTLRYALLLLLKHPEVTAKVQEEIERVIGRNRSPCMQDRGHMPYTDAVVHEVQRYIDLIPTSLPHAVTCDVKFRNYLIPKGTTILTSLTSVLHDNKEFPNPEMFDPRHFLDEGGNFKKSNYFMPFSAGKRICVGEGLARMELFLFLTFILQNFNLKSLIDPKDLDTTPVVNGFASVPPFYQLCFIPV
In data set [8] the target is Cytochrome P450 3A4 (Homo sapiens, UniProt P08684). In words: Inhibition of CYP3A4 (unknown origin). Type of data set: ADME.
Chain of Cytochrome P450 3A4 (P08684 whole entry): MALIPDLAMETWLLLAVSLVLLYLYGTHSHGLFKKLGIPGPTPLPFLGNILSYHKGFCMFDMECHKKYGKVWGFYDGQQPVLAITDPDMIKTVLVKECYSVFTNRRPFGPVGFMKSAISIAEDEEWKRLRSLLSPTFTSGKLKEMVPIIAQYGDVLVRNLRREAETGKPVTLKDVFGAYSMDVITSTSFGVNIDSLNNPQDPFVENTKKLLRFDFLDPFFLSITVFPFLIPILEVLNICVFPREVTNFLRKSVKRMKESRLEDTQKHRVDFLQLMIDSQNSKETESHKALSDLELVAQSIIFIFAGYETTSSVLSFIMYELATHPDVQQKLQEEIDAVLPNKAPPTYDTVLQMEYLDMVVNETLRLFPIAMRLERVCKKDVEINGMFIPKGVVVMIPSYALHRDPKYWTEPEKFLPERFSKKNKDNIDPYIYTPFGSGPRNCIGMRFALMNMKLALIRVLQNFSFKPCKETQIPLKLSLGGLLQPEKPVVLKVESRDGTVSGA
Data set [9] addresses Cytochrome P450 2D6 (Homo sapiens, UniProt P10635). In words: Inhibition of CYP2D6 (unknown origin). Type of data set: ADME.
Data set [10] is described as follows: AUC (0 to 24 hrs) in mouse at 10 mg/kg, po by capillary micro-sampling analysis. The format is ADME, organism-based. Also on record: dose 10 mg/kg, time < 24 hr, route oral. As to conditions: in vivo.
In data set [11] the target is Cytochrome P450 2C9 (Homo sapiens, UniProt P11712). In words: Inhibition of CYP2C9 (unknown origin). Type of data set: ADME.
Chain of Cytochrome P450 2C9 (P11712 whole entry): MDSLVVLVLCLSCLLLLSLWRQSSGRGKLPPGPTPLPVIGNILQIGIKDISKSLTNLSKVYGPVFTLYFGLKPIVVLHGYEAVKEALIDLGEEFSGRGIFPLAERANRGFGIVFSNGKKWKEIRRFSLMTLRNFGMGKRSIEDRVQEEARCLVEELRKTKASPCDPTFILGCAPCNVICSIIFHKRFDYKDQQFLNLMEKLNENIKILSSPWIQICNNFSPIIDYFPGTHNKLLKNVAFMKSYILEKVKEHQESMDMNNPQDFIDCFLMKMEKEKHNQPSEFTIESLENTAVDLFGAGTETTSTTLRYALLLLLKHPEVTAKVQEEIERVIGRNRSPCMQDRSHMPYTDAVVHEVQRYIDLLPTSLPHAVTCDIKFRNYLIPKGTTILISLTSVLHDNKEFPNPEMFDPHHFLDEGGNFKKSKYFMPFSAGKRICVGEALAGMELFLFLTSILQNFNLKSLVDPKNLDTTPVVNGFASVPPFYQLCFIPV
The nature of data set [12]: Half life in mouse at 10 mg/kg, po by capillary micro-sampling analysis. Type of data set: ADME, organism-based. As to conditions: in vivo.
Data set [13] has as its target T1, Indoleamine 2,3-dioxygenase 1. In words: Inhibition IDO1 in LPS/IFN-gamma stimulated human whole blood assessed as reduction in tryptophan/kynurenine level preincubated for 15 mins followed by LPS/IFN-gamma stimulation measured after 20 hrs by LC-MS/MS analysis. Type of data set: tissue-based.
Data set [14] concerns the target Tryptophan 2,3-dioxygenase (Homo sapiens, UniProt P48775). In words: Inhibition of TDO in human HEK cells. Type of data set: cell-based.
Data set [15] can be described thus: Cmax in mouse at 10 mg/kg, po by capillary micro-sampling analysis. The format is ADME, organism-based. The conditions noted are these: in vivo. The arrangement: dose 10 mg/kg, route oral.

T1 sequence (P14902 whole entry): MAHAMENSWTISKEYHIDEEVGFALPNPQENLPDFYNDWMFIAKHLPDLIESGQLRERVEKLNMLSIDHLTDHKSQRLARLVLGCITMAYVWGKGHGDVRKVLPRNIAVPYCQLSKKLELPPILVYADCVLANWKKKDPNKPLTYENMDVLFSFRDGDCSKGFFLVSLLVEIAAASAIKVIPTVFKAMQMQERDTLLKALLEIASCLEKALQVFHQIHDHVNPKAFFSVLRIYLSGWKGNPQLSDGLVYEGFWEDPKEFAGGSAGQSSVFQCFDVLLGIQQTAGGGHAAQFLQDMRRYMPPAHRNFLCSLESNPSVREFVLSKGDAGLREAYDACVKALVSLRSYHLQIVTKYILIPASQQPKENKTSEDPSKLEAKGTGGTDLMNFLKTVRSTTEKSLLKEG
Chain of Cytochrome P450 2D6 (P10635 whole entry): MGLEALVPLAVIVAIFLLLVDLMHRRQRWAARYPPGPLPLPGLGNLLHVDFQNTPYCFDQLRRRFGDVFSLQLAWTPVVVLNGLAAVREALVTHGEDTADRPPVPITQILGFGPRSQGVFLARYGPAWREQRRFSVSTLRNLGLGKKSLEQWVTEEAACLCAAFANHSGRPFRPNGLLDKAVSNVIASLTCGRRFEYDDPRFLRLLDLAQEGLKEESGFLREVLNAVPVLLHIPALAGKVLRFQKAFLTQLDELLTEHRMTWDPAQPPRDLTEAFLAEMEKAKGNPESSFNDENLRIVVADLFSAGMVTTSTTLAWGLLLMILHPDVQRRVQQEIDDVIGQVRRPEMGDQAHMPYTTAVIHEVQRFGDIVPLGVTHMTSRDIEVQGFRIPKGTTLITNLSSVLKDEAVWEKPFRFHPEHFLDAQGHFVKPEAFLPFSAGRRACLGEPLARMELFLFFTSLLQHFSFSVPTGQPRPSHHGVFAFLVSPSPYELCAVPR
Chain of Tryptophan 2,3-dioxygenase (P48775 whole entry): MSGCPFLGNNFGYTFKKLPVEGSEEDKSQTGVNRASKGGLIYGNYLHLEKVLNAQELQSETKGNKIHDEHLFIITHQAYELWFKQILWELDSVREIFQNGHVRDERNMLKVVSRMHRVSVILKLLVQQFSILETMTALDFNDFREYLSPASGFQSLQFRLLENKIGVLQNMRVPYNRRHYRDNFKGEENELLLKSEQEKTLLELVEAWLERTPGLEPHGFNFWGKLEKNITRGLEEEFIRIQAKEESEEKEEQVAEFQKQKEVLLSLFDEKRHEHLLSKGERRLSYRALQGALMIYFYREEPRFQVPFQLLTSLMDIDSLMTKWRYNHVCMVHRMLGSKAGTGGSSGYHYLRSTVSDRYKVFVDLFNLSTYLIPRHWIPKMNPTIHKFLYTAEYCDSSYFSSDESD

For `NS(=O)(=O)CC(=O)NCCSc1nonc1/C(=N/O)Nc1ccc(F)c(Br)c1`, the half-life in data set [1] was determined as 142 min; in data set [3], 67 min. In addition, the IC50 in data set [2] was determined as 71 nM; in data set [5] it was 12 nM. Also, in data set [4], the half-life at 1 µM is 45.5 min.

For `NS(=O)(=O)CC(=O)NCCSc1nonc1/C(=N/O)Nc1cccc(Br)c1`, the half-life in data set [1] is above 180 min; in data set [3], 55.1 min. Moreover, the IC50 in [2] amounted to 30 nM; in data set [5] it was 8.1 nM. In data set [4], the half-life at 1 µM turned out to be 57.3 min.

For `NS(=O)(=O)NCCSc1nonc1/C(=N/O)Nc1ccc(F)c(Br)c1`, the IC50 came out at 130 nM in [2] and 2.8 nM in data set [5]. Also, the half-life at 1 µM in data set [4] was 11 min.

In the case of `N#Cc1cccc(N/C(=N\O)c2nonc2SCCNC(=O)CS(N)(=O)=O)c1`, the half-life in data set [1] and in data set [3] was above 180 min each time. Moreover, the IC50 in data set [2] worked out at 240 nM; in [5], 44 nM. Moreover, in data set [4], the half-life at 1 µM was above 180 min.

In the case of `CS(=O)(=O)CC(=O)NCCSc1nonc1/C(=N/O)Nc1ccc(F)c(C(F)F)c1`, the half-life is 76.2 min in data set [1] and 45.9 min in data set [3]. In addition, the half-maximal inhibitory concentration (IC50) worked out at 100 nM in data set [2] and 14 nM in data set [5]. The half-life at 1 µM in data set [4] is 95.2 min.

Take `N#Cc1cc(N/C(=N\O)c2nonc2SCCNC(=O)CS(N)(=O)=O)ccc1F`: the half-life in [1] is above 180 min; in data set [3], 143 min. Besides, the figures for the IC50 in data set [2] and in data set [5] were 150 nM and 39 nM, respectively. The half-life at 1 µM in [4] was above 180 min.

As for `NS(=O)(=O)NCCNc1nonc1/C(=N/OC1OC(C(=O)O)C(O)C(O)C1O)Nc1ccc(F)c(Br)c1` (stereo unspecified), the Ratio in [6] was determined as 8.1.

As for `N#CCC(=O)NCCSc1nonc1/C(=N/O)Nc1ccc(F)c(C(F)F)c1`, the half-life in data set [1] is 166 min; in data set [3], 16.7 min. The concentration for half-maximal inhibition (IC50) in [2] came out at 180 nM; in data set [5], 6.5 nM. In data set [4], the half-life at 1 µM was 104 min.

As to `CC(C)(O)CC(=O)NCCSc1nonc1/C(=N/O)Nc1ccc(F)c(C(F)F)c1`, the half-life in data set [1] was found to be 56.2 min; in data set [3], 10.5 min. Besides, the IC50 in [2] was found to be 140 nM; in data set [5], 8.4 nM. In addition, in data set [4], the half-life at 1 µM is above 180 min.

Turning to `CS(=N)(=O)CC(=O)NCCSc1nonc1/C(=N/O)Nc1ccc(F)c(Br)c1` (stereo unspecified), the half-life in data set [1] turned out to be 159 min; in [3], 74.9 min. Besides, the IC50 in [2] was 61 nM; in [5], 14 nM. In data set [4], the half-life at 1 µM is 91.8 min.

As for `NS(=O)(=O)CC(=O)NCCSc1nonc1/C(=N/O)Nc1ccc(F)c(C(F)(F)F)c1`, the half-life in data set [1] turned out to be 113 min; in data set [3], 55.4 min. Further, the results for the concentration for half-maximal inhibition (IC50) in data set [2] and in data set [5] were 84 nM and 13 nM, respectively. Further, the half-life at 1 µM in [4] came to 86.7 min.

Take `CS(=O)(=O)NCCSc1nonc1/C(=N/O)Nc1ccc(F)c(Br)c1`: the half-life in [1] is 104 min; in [3], 17.4 min. Besides, the 50% inhibitory concentration (IC50) in data set [2] came to 270 nM; in data set [5], 9.3 nM. The half-life at 1 µM in data set [4] is 21.4 min.

Regarding `CSc1nonc1/C(=N/O)Nc1ccc(F)c(Br)c1`, the half-maximal inhibitory concentration (IC50) in data set [2] stood at 560 nM; in data set [5] it was 15 nM.

In the case of `NS(=O)(=O)CC(=O)NCCSc1nonc1/C(=N/O)Nc1cccc(C(F)(F)F)c1`, the half-life was 117 min in data set [1] and 26.4 min in data set [3]. The half-maximal inhibitory concentration (IC50) was found to be 140 nM in data set [2] and 12 nM in data set [5]. For the same compound, the half-life at 1 µM in data set [4] is above 180 min.

With `O=C(NCCSc1nonc1/C(=N/O)Nc1ccc(F)c(C(F)F)c1)C1CS(=O)(=O)C1`, the results for the half-life in data set [1] and in data set [3] were 76.7 min and 14.7 min, respectively. In addition, the IC50 in data set [2] was 70 nM; in [5], 13 nM. In [4], the half-life at 1 µM was above 180 min.

`COc1nonc1/C(=N/O)Nc1ccc(F)c(Br)c1`: the half-inhibitory concentration (IC50) is 230 nM in [2] and 39 nM in data set [5].

For `C[C@H](CSc1nonc1/C(=N/O)Nc1ccc(F)c(Br)c1)NC(=O)CS(N)(=O)=O`, the half-life in [1] is 46.2 min; in data set [3] it was 32.2 min. For the same compound, the 50% inhibitory concentration (IC50) was determined as 110 nM in data set [2] and 12 nM in data set [5]. The half-life at 1 µM in [4] is 79.9 min.

With `C[C@@H](CSc1nonc1/C(=N/O)Nc1ccc(F)c(Br)c1)NC(=O)CS(N)(=O)=O`, the half-life in data set [1] stood at 94.4 min; in data set [3], 23.9 min. For the same compound, the concentration for half-maximal inhibition (IC50) in data set [2] was 93 nM; in [5] it was 19 nM. Further, the half-life at 1 µM in data set [4] was above 180 min.

With `NS(=O)(=O)NCCOc1nonc1/C(=N/O)Nc1ccc(F)c(Br)c1`, the values for the IC50 in [2] and in [5] were 150 nM and 12 nM, respectively. The half-life at 1 µM in data set [4] is 2.9 min.

As to `NS(=O)(=O)NCCNc1nonc1C(=NO)Nc1ccc(F)c(Br)c1` [EPACADOSTAT], in [4], the half-life at 1 µM amounted to 23 min.

`NS(=O)(=O)CC(=O)NCCSc1nonc1/C(=N/O)Nc1ccc(F)c(C(F)F)c1`: the half-life stood at 166 min in data set [1] and 64 min in [3]. Further, the IC50 worked out at 73 nM in data set [2] and 13 nM in data set [5]. Moreover, the half-life at 1 µM in [4] is above 180 min.

Regarding `NS(=O)(=O)NCC(=O)NCCSc1nonc1/C(=N/O)Nc1ccc(F)c(C(F)F)c1`, the half-maximal inhibitory concentration (IC50) in data set [7] was above 10 µM; in data set [8] it was above 10 µM; in data set [2], 93 nM; in [9] it was above 10 µM; in data set [5] it was 21 nM; in [11], above 10 µM. Further, the 50% inhibitory concentration (IC50) in data set [13] was 320 nM; in data set [14] it was above 10 µM. The half-life in [1] is above 180 min; in data set [3] it was 165 min; in data set [12], 216 min. For the same compound, the half-life at 1 µM in data set [4] is above 180 min. The compound further came in with an AUC(0-t) at 24 h in data set [10] of 30 µM·h. The compound also returned a Cmax in data set [15] of 3.3 µM.

Take `CC1(C(=O)NCCSc2nonc2/C(=N/O)Nc2ccc(F)c(C(F)F)c2)CCN1` (stereo unspecified): the half-life in data set [1] came out at 118 min; in data set [3], 16.1 min. In addition, the IC50 in data set [2] stood at 360 nM; in [5], 16 nM. Moreover, the half-life at 1 µM in [4] is above 180 min.

With `NS(=O)(=O)CC(=O)NCCSc1nonc1/C(=N/O)Nc1cccc(C(F)F)c1`, the half-life is above 180 min in data set [1] and 90 min in data set [3]. Moreover, the half-maximal inhibitory concentration (IC50) in [2] was found to be 130 nM; in data set [5], 17 nM. Further, in [4], the half-life at 1 µM was above 180 min.

In the case of `CS(=O)(=O)CCC(=O)NCCSc1nonc1/C(=N/O)Nc1ccc(F)c(Br)c1`, the half-life in data set [1] stood at 146 min; in data set [3] it was 99.3 min. For the same compound, the IC50 is 140 nM in data set [2] and 7.6 nM in data set [5]. The half-life at 1 µM in data set [4] is 51.5 min.

The values above are taken from ChEMBL document CHEMBL4334553, “Discovery of Hydroxyamidine Based Inhibitors of IDO1 for Cancer Immunotherapy with Reduced Potential for Glucuronidation” (ACS Med Chem Lett, 2020).
